Like-named read-outs stand apart in the source and are kept apart here.
How the values were obtained:
Assay type in all cases: cell-based
influenza virus A/PR/8 = assay: microbe, parasite or virus in culture; conditions: unidentified influenza virus, MDCK, 72 h, read-out: EC50 influenza virus A/PR/8 (PR8-MDCK)
EV71 = assay: Anti-enterovirus activity, EV71-RD; conditions: Enterovirus A, RD cells
[1] = tested on: influenza virus A/Zhenxing1109/2010; assay: microbe, parasite or virus in culture; conditions: unidentified influenza virus, MDCK, 72 h, read-out: EC50 influenza virus A/Zhenxing1109/2010 (ZX1109-MDCK)
[2] = Cytotoxicity test of the drug on MDCK (CellTiter-Glo); conditions: dog, MDCK cells
Description: (2) Cytotoxicity test of the drug
(§1) 1) MDCK cell (purchased from ATCC, Catalog:CCL-34) was inoculated into a 96-well plate at a concentration of 1.5×10^4 cell/well, wherein the medium is DMEM (purchased from Gibco, Catalog No.: 11995065) containing 10% FBS (purchased from Gibco, Catalog No.: 16000044), and cultured for 24 hrs at 37° C. in a CO2 incubator.
2) Before the experiment, the cells were wahsed 3 times with PBS (purchased from Gibco, Catalog No.: 10010049), 150 μL of D/F-12 medium (purchased from Gibco, Catalog No.: 11330032) containing 2 μg/mL TPCK (purchased from Sigma, Catalog No.:T1426) was added. […]
(§2) 3) Buffer and substrate of CellTiter-Glo® Luminescent Cell Viability Assay Kit (purchased from Promega, Catalog No.:G7573) were mixed in dark as the work solution. […] After stabilizing the signal in dark for 5 min, chemiluminescence was determined by an enzyme-labeled instrument (purchased from Molecular Devices, SpectraMax M5), the plate reading program was the CellTiter-Glo preset program, and the cytotoxicity was calculated: […]
(§3) wherein A was the reads from the enzyme-labeled instrument.

[3] = tested on: influenza virus A/California/07/2009; assay: microbe, parasite or virus in culture; conditions: unidentified influenza virus, MDCK, 72 h, read-out: EC50 influenza virus A/California/07/2009 (CA07-MDCK)
enterovirus strain CB3 = assay: Anti-enterovirus activity in Vero cells (CellTiter-Glo)
Description: (1) Evaluation of anti-enterovirus activity of the drug
as §1, with “Vero cells” for “MDCK cell”, “Catalog No.:CCL-81) were” for “Catalog:CCL-34) was”, “96 wells” for “96-well”, “1×10^4 cells/well,” for “1.5×10^4 cell/well,”, “2%” for “10%”
2) Before the experiment, the cells were wahsed 3 times with PBS (purchased from Gibco, Catalog No.: 10010049), 100 μL of DMEM medium (purchased from Gibco, Catalog No.:11995065) containing 2% FBS (purchased from Gibco, Catalog No.: 16000044) was added. […] Finally, 50 μL of the enterovirus strain CB3 (preserved in Academy of Military Medical Sciences) diluted with DMEM medium containing 2% FBS was added to reach 100 TCID50 for each well. […]
as §2, with “After stablizing” for “After stabilizing”, “for 3” for “for 5”, “the cell viability” for “the cytotoxicity”
as §3

bunya virus = conditions: preliminary test results; Huh7 cells
CA6 = assay: Anti-enterovirus activity, CA6-RD; conditions: RD cells
[4] = tested on: influenza virus A/Hongkong/08/1968; assay: microbe, parasite or virus in culture; conditions: unidentified influenza virus, MDCK, 72 h, read-out: EC50 influenza virus A/Hongkong/08/1968 (HK68-MDCK)
CA16 = assay: Anti-enterovirus activity, CA16-RD; conditions: RD cells
Vero E6 cells = assay: Cytotoxicity test of drug, CCK-8 kit; conditions: at below 10 μM, FIG. 1
Description: (§4) (5) Cytotoxicity test of drug
(§5) The detection of the drug cytotoxicity was performed using CCK-8 kit (Beoytime). Specific steps were as follows:
(§6) 1) 1×104 Vero E6 (ATCC) cells were placed in a 96-well plate and incubated at 37° C. for 8 hours.
(§7) 2) The drug was diluted with DMSO to an appropriate concentration of mother liquor, and then diluted with MEM medium (purchased from Gibco, Catalog No. 10370021) containing 2% FBS (purchased from Gibco, Catalog No. 16000044) to the same concentration as that for the drug treatment. The original medium in the 96-well plate was discarded, 100 μL of drug-containing MEM medium was added to the cells, and three replicate wells were prepared for each concentration. Vehicle control (DMSO and medium were added to the cell wells, without adding drug) and blank control (DMSO and medium were added to the wells, without cells) were set up. After the drug was added, the cells were cultured at 37° C. for 48 hours.
(§8) 3) 20 μL of CCK-8 solution (Beoytime) was added to the well to be tested, mixed gently, without generating bubbles, and continuously incubated at 37° C. for 2 hours. OD450 was read on a microplate reader (purchased from Molecular Devices, Model:SpectraMax M5), and cell viability was calculated:
(§9) Cell activity(%)=(A(drug treatment group)−A(blank control))/(A(vehicle control)−A(blank control))×100%
(§10) wherein A was the reading of the microplate reader.

[5] = Cytotoxicity test of drug, CCK-8 kit; conditions: African green monkey; Vero E6 cells; CCK-8; 48 hours
Description: as §4, §5, §6, §7, §8, §9, §10

EVD68 = assay: Anti-enterovirus activity, EVD68-RD; conditions: RD cells
Vero cells = assay: Cytotoxicity test of the drug, enterovirus example (CellTiter-Glo); conditions: enterovirus table; cell line not given
[6] = tested on: zika virus strain SZ-SMGC-01; assay: Anti-zika virus activity in BHK or Vero cells (CellTiter-Glo); conditions: preliminary test results
Description: (1) Evaluation of anti-zika virus activity of the drug
1) BHK cells (preserved in Academy of Military Medical Sciences) or Vero cells (preserved in Academy of Military Medical Sciences) were inoculated into a 96 wells plate at a concentration of 5×10^3 cells/well for BHK cells and 1×10^4 cells/well for Vero cells, wherein the medium is DMEM (purchased from Gibco, Catalog No.: 11995065) containing 10% FBS (purchased from Gibco, Catalog No.: 16000044), and cultured for 24 hrs at 37° C. in a CO2 incubator.
2) The culture medium in the 96-well plate was discarded, 100 μL of DMEM medium (purchased from Gibco, Catalog No.:11995065) containing 2% FBS (purchased from Gibco, Catalog No.: 16000044) was added. […] Finally, 50 μL of the zika virus strain SZ-SMGC-01 (preserved in Academy of Military Medical Sciences) diluted with DMEM medium containing 2% FBS was added to reach 100 TCID50 for each well. […]
as §2, with “for 2” for “for 5”, “the cell viability” for “the cytotoxicity”
as §3

influenza virus B/Lee/40 = assay: microbe, parasite or virus in culture; conditions: unidentified influenza virus, MDCK, 72 h, read-out: EC50 influenza virus B/Lee/40 (Blee-MDCK)
[7] = tested on: SARS-CoV-2 (nCoV-2019BetaCoV/Wuhan/WIV04/2019 strain); assay: microbe, parasite or virus in culture; conditions: for inhibition of viral RNA load in the cells: Vero E6, dose-dependent; for EC50: Severe acute respiratory syndrome coronavirus 2, Vero C1008, Vero E6 cells, viral RNA copy number, read-out: EC50 against SARS-CoV-2

CCn1c(CO)nn(-c2cc(O[C@@H](C)C(F)(F)F)c(C(=O)Nc3c(F)cccc3Cl)cc2F)c1=O [BAY 2402234]
EC50 (influenza virus A/PR/8): 10 ± 0.3 nM | EC50 (EV71): > 100000 nM | EC50 [1]: 40 nM | CC50 at 72 h [2]: 270 nM | EC50 [3]: 30 ± 9 nM | EC50 (enterovirus strain CB3; Enterovirus, 120 h, Vero cells, 5 days): < 50 nM | inhibitory effect on enterovirus (enterovirus strain CB3; preliminary test results): had inhibitory effect | inhibitory effect on bunya virus (bunya virus): had inhibitory effect | EC50 (CA6): > 100000 nM | EC50 [4]: 7 nM | EC50 (CA16): > 100000 nM | effect on cell viability (cytotoxicity) (Vero E6 cells): did not change the cell viability | CC50 at 48 h [5]: 199000 nM | EC50 (EVD68): > 100000 nM | CC50 (Vero cells): > 300000 nM | inhibitory effect on zika virus [6]: had inhibitory effect | EC50 (influenza virus B/Lee/40): 30 nM | inhibition of viral RNA load in the cells ([7]; 24 h after infection by SARS-CoV-2, FIG. 1(a)): can inhibit the viral RNA load | inhibition of viral RNA load in the cells ([7]; 48 h after infection by SARS-CoV-2, FIG. 1(b)): can inhibit the viral RNA load | EC50 ([7]; 24 hours after the infection): 7 nM | EC50 ([7]; 48 hours after the infection): 2.7 nM | inhibition of replication of the SARS-CoV-2 virus genome in the infected supernatant ([7]; at 10 μM, 3.3 μM, 1.1 μM, 0.3 μM, 0.1 μM and 0.03 μM, FIG. 1): could effectively inhibit the replication
